{
  "source": "patent US20250034600A1",
  "about": "“ONIUM SALT COMPOSITIONS, METHODS FOR PRODUCING CELLULOSE HYDROLYSATES, ALCOHOLS AND/OR ORGANIC ACIDS IN THE PRESENCE OF ONIUM SALT COMPOSITIONS” (KOEI CHEMICAL COMPANY, LIMITED, priority 2023, published 2025)",
  "key": {"[1]": {"tested_on": "cellulase (produced by Sigma) and dry yeast", "assay": "Cellulose dissolution, cellulase hydrolysis and dry yeast fermentation to ethanol in one pot in the presence of the onium salt", "assay_type": "cell-based", "conditions": "2.00 g onium salt, 0.50 g microcrystalline cellulose, 80° C. 3 h; 38.0 g water, 20 μL cellulase, 50° C. 10 h; 0.50 g dry yeast, 30° C. 7 h; GC", "description": "2.00 g of 1,3-bis(3-methoxypropyl)imidazolium acetate was placed in a sample tube, and 0.50 g of microcrystalline cellulose (Avicel (registered trademark) PH-101) was added. The resulting mixture was heated and stirred at 80° C. for 3 hours. After confirming by visual observation that the microcrystalline cellulose had been […], 38.0 g of ultrapure water and 20 μL of cellulase (produced by Sigma) were added. The resulting mixture was stirred at 50° C. for 10 hours. 0.50 g of dry yeast was then added and the resulting mixture was gently stirred at 30° C. After 7 hours, the insoluble matter was filtered off, and the amount of ethanol produced was quantified by GC (gas chromatography) to calculate the ethanol yield.\nThe same procedure as in Example 5 was repeated, except that 1-ethyl-3-methylimidazolium acetate was used in place of the 1,3-bis(3-methoxypropyl)imidazolium acetate used in Example 5.\nThe same procedure as in Example 5 was repeated, except that the 1,3-bis(3-methoxypropyl)imidazolium acetate used in Example 5 was not added and 2.00 g of ultrapure water was used in place of 2.00 g of 1,3-bis(3-methoxypropyl)imidazolium acetate."}, "[2]": {"tested_on": "yeast (Saccharomyces cerevisiae)", "assay": "Antibacterial test (minimum inhibitory concentration, MIC value) against yeast", "assay_type": "cell-based", "conditions": "lower MIC = greater inhibition", "description": "An antibacterial test (measurement of minimum inhibitory concentration (MIC value)) of 1,3-bis(3-methoxypropyl)imidazolium acetate and 1-ethyl-3-methylimidazolium acetate against yeast (Saccharomyces cerevisiae) was carried out. A lower MIC value indicates a greater degree of inhibition of enzymatic and/or microbial activity."}, "[3]": {"tested_on": "cellulase (produced by Sigma)", "assay": "Enzymatic hydrolysis of microcrystalline cellulose with cellulase in the presence of the onium salt", "assay_type": "biochemical", "conditions": "1.00 g microcrystalline cellulose in 5.00 g onium salt; 95.0 g water, 10 μL cellulase, 4 days; calculated from cellulose residue", "description": "5.00 g of 1,3-bis(3-methoxypropyl)imidazolium acetate was placed in a flask and maintained at 50° C. 1.00 g of microcrystalline cellulose (Avicel (registered trademark) PH-101) was added at 50° C., and the resulting mixture was stirred until visual observation confirmed that microcrystalline cellulose had been completely dissolved. 95.0 g of ultrapure water and 10 μL of cellulase (produced by Sigma) were added, and the resulting mixture was stirred for 4 days. The remaining cellulose residue was recovered by filtration, and the glucose conversion rate was calculated.\nThe same procedure as in Example 1 was repeated except that 1-ethyl-3-methylimidazolium acetate was used in place of the 1,3-bis(3-methoxypropyl)imidazolium acetate used in Example 1."}, "dry yeast": {"tested_on": "dry yeast", "assay": "Fermentation of glucose with dry yeast to ethanol in the presence of the onium salt", "assay_type": "cell-based", "conditions": "0.20 g onium salt, 0.5 g glucose, 9.6 g water, 0.05 g dry yeast, stand overnight; ethanol quantified by GC", "description": "(§1) 0.20 g of 1,3-bis(3-methoxypropyl)imidazolium acetate, 0.5 g of glucose (β-D-glucose (including α-D-glucose), produced by Tokyo Chemical Industry Co., Ltd.), and 9.6 g of ultrapure water were placed in a sample tube. The resulting mixture was stirred until the glucose was completely dissolved. After the glucose had been completely dissolved, 0.05 g of dry yeast was added and the resulting mixture was allowed to stand overnight. After filtering off the insoluble matter, the amount of ethanol produced was quantified by GC (gas chromatography) to calculate the ethanol yield.\nas §1, with “1,3-bis(methoxyethoxypropyl)imidazolium acetate ([(MeOEtOPr)2Im][AcO]),” for “1,3-bis(3-methoxypropyl)imidazolium acetate,”, “added. The” for “added and the”\nas §1, with “1,3-bis(ethoxypropyl)imidazolium acetate ([(EtOPr)2Im][AcO]),” for “1,3-bis(3-methoxypropyl)imidazolium acetate,”\nThe same procedure as in Example 2 was repeated except that 1-ethyl-3-methylimidazolium acetate was used in place of the 1,3-bis(3-methoxypropyl)imidazolium acetate used in Example 2."}},
  "data": [
    {"compound": "CC(=O)[O-].CCn1cc[n+](C)c1", "note": "[1-Ethyl-3-methylimidazolium acetate, 1-ethyl-3-methylimidazolium acetate, reference compound]", "values": [
      {"measurement": "Ethanol yield", "setting": "[1]", "result": 16.0},
      {"measurement": "MIC value", "setting": "[2]", "result": 0.5, "unit": "%"},
      {"measurement": "Glucose conversion rate", "setting": "[3]", "result": 8, "unit": "%"},
      {"measurement": "Ethanol yield", "setting": "dry yeast", "result": 14.2, "unit": "%"}
    ]},
    {"compound": "CC(=O)[O-].CCOCCCn1cc[n+](CCCOCC)c1", "note": "[[EtOPr]2Im] [AcO], 1,3-bis(ethoxypropyl)imidazolium acetate]", "values": [
      {"measurement": "Ethanol yield", "setting": "dry yeast", "result": 46.38, "unit": "%"}
    ]},
    {"compound": "CC(=O)[O-].COCCCn1cc[n+](CCCOC)c1", "note": "[[MeOPr]2Im] [AcO], 1,3-bis(3-methoxypropyl)imidazolium acetate]", "values": [
      {"measurement": "Ethanol yield", "setting": "[1]", "result": 51.5},
      {"measurement": "MIC value", "setting": "[2]", "result": 5, "unit": "%"},
      {"measurement": "Glucose conversion rate", "setting": "[3]", "result": 73, "unit": "%"},
      {"measurement": "Ethanol yield", "setting": "dry yeast", "result": 66.64, "unit": "%"}
    ]},
    {"compound": "CC(=O)[O-].COCCOCCCn1cc[n+](CCCOCCOC)c1", "note": "[[MeOEtOPr]2Im] [AcO], 1,3-bis(methoxyethoxypropyl)imidazolium acetate]", "values": [
      {"measurement": "Ethanol yield", "setting": "dry yeast", "result": 53.77, "unit": "%"}
    ]}
  ]
}
